# From US20160310512A1, “THERAPY REGIMEN FOR TREATING SEVERE ACNE RELATED DISEASES” (GALDERMA RESEARCH & DEVELOPMENT, priority 2013, published 2016)
# Legend:
# [1] = when combined with BPO; unlike tretinoin; cited from earlier work
# severe acne vulgaris [2] = experiment: Multi-center randomized investigator-blind clinical study, 20 weeks: efficacy on acne lesions, nodules and atrophic scars; format: in vivo, human; settings: for Atrophic acne scar count (Mean ± SD): half face
# Procedure: This example was the first study evaluating the concomitant use of these treatments.
# Isotretinoin is administrated under capsule form (of 40 mg and/or 10 mg each). The quantity administrated was calculated according to patient weight and treatment duration in order to finally administrate a dosage of 0.5 mg/kg for the first 4 weeks of treatment and 1 mg/kg for the 16 remaining weeks.
# This study was conducted as a multi-center, randomized, investigator-blind, controlled and parallel group trial. This non-inferiority study involved subjects of any race, aged 12 to 35 years inclusive with severe acne and meeting specific eligibility criteria.
# Subjects were randomized at baseline and treated for 20 weeks with either Adapalene-BPO gel associated with oral doxycycline or its vehicle gel associated with oral Isotretinoin.
# A total of 266 subjects were enrolled across 29 centres in Canada. Of which, 217 subjects were included in the analysis-per-protocol (PP) populations (all randomized subjects without any major protocol deviations) for primary endpoint analysis. All other endpoints were analysed with population-intent-to-treat (ITT) (all randomized subjects who were dispensed study medication) (N=266).
# For efficacy variables, in order to evaluate the effect of major deviations or of data exclusions, the ITT population were analyzed at each visit using the last observation carried forward (LOCF) to impute missing values. If no post-baseline data was available, baseline was carried forward. […] The other missing values were not replaced (observed data).
# (§1) Reduction of at least 75% of number of nodules at the end of treatment
# Other secondary efficacy endpoints were the percent change from baseline visit in Total lesion counts, Inflammatory lesion counts, Nodule counts, and the total atrophic acne scar counts.
# severe acne vulgaris [3] = experiment: Same clinical study: composite overall success (efficacy + safety); format: in vivo, human
# Source text: To achieve this objective, a primary outcome, overall success, was defined as a composite endpoint including efficacy and safety measurements.
# Overall success was deemed to be reached when the 2 following criteria were fulfilled:
# as §1
# P. acnes = P. acnes presence by UV fluorescence photography (Visia system), subset of 40 subjects; format: in vivo
# Procedure: Atrophic acne scar counts were conducted on half the face and the presence of P. acnes were also assessed by UV fluorescence photography (Visia® system—Canfield Scientific, Inc.). […] As few centers were equipped with this system, this test was performed on a subset of only 40 subjects.
# [4] = ITT Observed population, count (%)
# [5] = APT, Very Bothered at least 1 Month + Persisting at least 2 Weeks + At least 1 episode
# [6] = ITT observed, chelitis, xerosis, erythema, dry mouth, pruritus, epistaxis, conjunctivitis, eye irritation, dry eye
# [7] = ITT observed, lip balm, moisturizer, cleanser, cosmetics not counted
# [8] = ITT observed, phototoxicity, allergic skin/eczematous reaction, candida vaginitis
# [9] = ITT observed, study termination at subject's request motivated by treatment concern
smiles,measurement,setting,value
"COc1ccc(-c2ccc3cc(C(=O)O)ccc3c2)cc1C12CC3CC(CC(C3)C1)C2 [Adapalene, 6-[3-(1-adamantyl)-4-methoxyphenyl]-2-naphtoic acid]",stability in the presence of light,[1],stable
"CC1=C(/C=C/C(C)=C/C=C/C(C)=C\C(=O)O)C(C)(C)CCC1 [Vehicle + Isotretinoin, 13-cis-retinoic acid]","Efficacy failure (nodule reduction <75%), Event",severe acne vulgaris [2]; ITT observed,2 n
same,"Efficacy failure (nodule reduction <75%), Subject",severe acne vulgaris [2]; ITT observed,"2 (1.6%) n, %"
same,Efficacy Success (nodule reduction >75%),"severe acne vulgaris [2]; PP population, end of 20-week treatment",110 (98.2%) patients (%)
same,Atrophic acne scar count (Mean ± SD),severe acne vulgaris [2]; W12-LOCF (ITT),16.7 ± 15.7
same,Atrophic acne scar count (Mean ± SD),severe acne vulgaris [2]; W20-LOCF (ITT),16.1 ± 16.7
same,"Inflammatory lesions (Median) (not including nodules), % change","severe acne vulgaris [2]; Week 20, ITT LOCF",−95%
same,"Nodules (Mean), % change","severe acne vulgaris [2]; Week 20, ITT LOCF",−96%
same,"Total lesion counts (Median), % change","severe acne vulgaris [2]; Week 20, ITT LOCF",−93%
same,acne lesion outcomes compared to Adapalene-BPO+Doxycycline (in words),"severe acne vulgaris [2]; Week 20, most of the acne lesion outcomes",superior
same,Overall success: Failure,severe acne vulgaris [3]; [4],52 (41.6%)
same,Overall success: Success,severe acne vulgaris [3]; [4],73 (58.4%)
same,Overall Success,"severe acne vulgaris [3]; PP population, 20 weeks",65 (58.0%) patients (%)
same,Overall success: Failure,"severe acne vulgaris [3]; PP population, count (%)",47 (42.0%)
same,"composite endpoint (efficacy and safety), overall success","severe acne vulgaris [3]; intent-to-treat population, p=0.125",54.9%
same,"composite endpoint (efficacy and safety), overall success","severe acne vulgaris [3]; per-protocol population, p=0.014",58%
same,"P. acnes fluorescence, median percent change",P. acnes; week 2,+14.1%
same,P. acnes reduction (in words),P. acnes; week 20,in favor of ISO
same,"Clinically significant lab abnormality, Evt",APT,6 n
same,"Clinically significant lab abnormality, Subj.",APT,4 (3.0%) n (%)
same,"Related AE requiring a prescription of a concomitant medical treatment, Evt",APT,34 n
same,"Related AE requiring a prescription of a concomitant medical treatment, Subj.",APT,27 (25.6%) n (%)
same,"Related AEs deemed as safety failure, Subj.",APT,45 (33.8%) n (%)
same,"Related AEs leading to discontinuation, Evt",APT,5 n
same,"Related AEs leading to discontinuation, Subj.",APT,4 (3.0%) n (%)
same,"Related AEs, Evt",APT,299 n
same,"Related AEs, Subj. with at least one event",APT,117 (88.0%) n (%)
same,"Related serious AEs, Evt",APT,1 n
same,"Related serious AEs, Subj.",APT,1 (0.8%) n (%)
same,"Related severe AEs, Evt",APT,5 n
same,"Related severe AEs, Subj.",APT,5 (3.8%) n (%)
same,subjects reporting at least 1 related AE,APT,88%
same,subjects with related AEs deemed as a safety failure (AEs of special management concern),APT,33.8%
same,"Other medically relevant related AEs, Evt",[5],35 n
same,"Other medically relevant related AEs, Subj.",[5],23 (17.3%) n (%)
same,"Related AEs deemed as safety failure, Evt","APT, each AE counted once",73 n
same,"Clinically significant lab abnormality, Event",ITT observed,6 n
same,"Clinically significant lab abnormality, Subject",ITT observed,"4 (3.2%) n, %"
same,"Inability to escalate to Iso 1 mg/kg/day, Event",ITT observed,5 n
same,"Inability to escalate to Iso 1 mg/kg/day, Subject",ITT observed,"5 (4.0%) n, %"
same,"Necessity of oral drug downward dose adjustment, Event",ITT observed,2 n
same,"Necessity of oral drug downward dose adjustment, Subject",ITT observed,"2 (1.6%) n, %"
same,"Related AE leading to discontinuation, Event",ITT observed,5 n
same,"Related AE leading to discontinuation, Subject",ITT observed,"4 (3.2%) n, %"
same,"Related SAE, Event",ITT observed,1 n
same,"Related SAE, Subject",ITT observed,"1 (0.8%) n, %"
same,"Related Severe AE, Event",ITT observed,5 n
same,"Related Severe AE, Subject",ITT observed,"5 (4.0%) n, %"
same,"Safety Failure, Event",ITT observed,95 n
same,"Safety Failure, Subject",ITT observed,"50 (40.0%) n, %"
same,subjects with safety failure,ITT observed,40.0%
same,"Predefined related AE Very Bothered, at least 1 Month, Event",[6],2 n
same,"Predefined related AE Very Bothered, at least 1 Month, Subject",[6],"2 (1.6%) n, %"
same,"Related AE requiring a prescription of a concomitant medical treatment, Event",[7],34 n
same,"Related AE requiring a prescription of a concomitant medical treatment, Subject",[7],"27 (21.6%) n, %"
same,"Predefined related AE for at least 1 episode, Event",[8],21 n
same,"Predefined related AE for at least 1 episode, Subject",[8],"15 (12.0%) n, %"
same,"Subject's treatment concern, Event",[9],2 n
same,"Subject's treatment concern, Subject",[9],"2 (1.6%) n, %"
same,Safety Success (absence of medically relevant events),"PP population, 20 weeks",67 (59.8%) patients (%)
